Converted amounts (≈) assume the structure as drawn.
What was measured:
[1] = test system: Staphylococcus aureus; assay: Antibacterial activity against methicillin-resistant Staphylococcus aureus SA86 by CLSI M07-A8 protocol based microdilution method; assay type: functional
[2] = test system: Staphylococcus aureus; assay: Antibacterial activity against Staphylococcus aureus ATCC 29213 by CLSI M07-A8 protocol based microdilution method; assay type: functional

| SMILES | MIC [1] [µg/mL] | MIC [2] [µg/mL] |
| --- | --- | --- |
| CC(C)CCC[C@@H]1CC(=O)N[C@@H](CO)C(=O)N[C@H](CC(N)=O)C(=O)N[C@@H](CO)C(=O)NCC(=O)N(C)[C@H](Cc2ccccc2)C(=O)N[C@@H](CC(C)C)C(=O)N[C@H](Cc2c[nH]cn2)C(=O)N[C@@H](CCC(=O)O)C(=O)N[C@H](CC(N)=O)C(=O)N[C@H](Cc2c[nH]c3ccccc23)C(=O)N[C@H](CCCN)C(=O)N(C)[C@@H](C(C)C)C(=O)O1 | 2 (≈ 1.27 µM) | 2 (≈ 1.27 µM) |
| CC(C)CCC[C@@H]1CC(=O)N[C@@H](CO)C(=O)N[C@H](CC(N)=O)C(=O)N[C@@H](CO)C(=O)NCC(=O)N[C@H](C)C(=O)N[C@@H](CC(C)C)C(=O)N[C@H](CCCN)C(=O)N[C@@H](CCC(=O)O)C(=O)N[C@H](CC(N)=O)C(=O)N[C@H](Cc2c[nH]c3ccccc23)C(=O)N[C@H](CCCN)C(=O)N(C)[C@@H](C(C)C)C(=O)O1 | ≥ 32 | ≥ 32 |
| CC(C)CCC[C@@H]1CC(=O)N[C@@H](CO)C(=O)N[C@H](CC(N)=O)C(=O)N[C@@H](CO)C(=O)NCC(=O)N(C)[C@H](Cc2ccccc2)C(=O)N[C@@H](CC(C)C)C(=O)N[C@H](CCCN)C(=O)N[C@@H](CCC(=O)O)C(=O)N[C@H](CC(N)=O)C(=O)N[C@H](Cc2c[nH]c3ccccc23)C(=O)N[C@H](CCCN)C(=O)N(C)[C@@H](C(C)C)C(=O)O1 | 1 (≈ 0.647 µM) | 1 (≈ 0.647 µM) |
| CC(C)CCC[C@@H]1CC(=O)N[C@@H](CO)C(=O)N[C@H](CC(N)=O)C(=O)N[C@@H](CO)C(=O)NCC(=O)N(C)[C@H](Cc2ccccc2)C(=O)N[C@@H](CC(C)C)C(=O)N[C@H](C)C(=O)N[C@@H](CCC(=O)O)C(=O)N[C@H](CC(N)=O)C(=O)N[C@H](Cc2c[nH]c3ccccc23)C(=O)N[C@H](CCCN)C(=O)N(C)[C@@H](C(C)C)C(=O)O1 | ≥ 32 | ≥ 32 |
| CC(C)CCC[C@@H]1CC(=O)N[C@@H](CO)C(=O)N[C@H](CC(N)=O)C(=O)N[C@@H](CO)C(=O)NCC(=O)N(C)[C@H](Cc2ccccc2)C(=O)N[C@@H](CC(C)C)C(=O)N[C@H](CCCN)C(=O)N[C@@H](CCC(=O)O)C(=O)N[C@H](CC(N)=O)C(=O)N[C@H](Cc2c[nH]c3ccccc23)C(=O)N[C@H](C)C(=O)N(C)[C@@H](C(C)C)C(=O)O1 | ≥ 32 | ≥ 32 |
| CC(C)CCC[C@@H]1CC(=O)N[C@@H](CO)C(=O)N[C@H](CC(N)=O)C(=O)N[C@@H](CO)C(=O)NCC(=O)N(C)[C@H](Cc2ccccc2)C(=O)N[C@@H](CC(C)C)C(=O)N[C@H](CCCN)C(=O)N[C@@H](CCC(=O)O)C(=O)N[C@H](CC(N)=O)C(=O)N[C@H](Cc2c[nH]c3ccccc23)C(=O)N[C@H](CCCCN)C(=O)N(C)[C@@H](C(C)C)C(=O)O1 | 2 (≈ 1.28 µM) | 1 (≈ 0.641 µM) |

Source: ChEMBL document CHEMBL4725375, “Total synthesis and a systematic structure-activity relationship study of WAP-8294A2” (2020)
